Data taken from patent US20080305085A1, “Compositions And Methods For Stem Cell Expansion” (priority 2004, published 2008).

What was measured:
[1] = system: Jagged1; assay: Jagged1 expression by RT-PCR in wild-type bone marrow stroma exposed to OPN ex vivo; assay type: cell-based, mouse; conditions: OPN 1 ug/ml, four hours ex vivo
Excerpt: FIGS. 4A-4F are graphs showing that OPN^−/− bone marrow has unaltered cell cycle profiles associated with increased stromal Jagged1 and Angiopoietin-1 expression and reduced primitive cell apoptosis. FIG. 4A is a graph showing that bone marrow Sca1^+ c-kit^+lin^− cells that show bright staining for Hoechst33342 are cells in the G2/M phase of the cell cycle (n=3 pairs). […] Data are the result of two independent experiments with four mice per group in each experiment. […] Data were normalized to an intrasample GAPDH standard and the results of the OPN^−/− versus OPN^+/+ cells were compared by ratio. […] Data are normalized against GAPDH expression measured by RT PCR. […] AnnexinV-positive/7-AAD-negative apoptotic Sca1^+c-kit^+lin^− cells are shown (n=4 pairs). […] Analyses were performed on the lin^− fraction twelve weeks after transplantation (n=4).
Stem cell expansion may occur without increased proliferation in the context of Notch1 activation where stem cell self renewal is favored over differentiation^23,24. Activation of Notch1 on primitive hematopoietic cells in vivo was previously shown to result in an increase in primitive cells, but reduced progenitor cells similar phenotype to that reported herein^23. […]
The expression of Jagged1, Angiopoietin1 and N-cadherin in bone marrow stroma cells was measured by RT-PCR. […]

[2] = system: Sca1+lin− bone marrow cells; assay: Colony-forming cell (CFC) assay after 7 day culture with OPN; assay type: cell-based, mouse; conditions: after 7 days culture with OPN 1 μg/ml versus without OPN, n=5
Method: (§1) FIGS. 5A-5C are graphs showing that soluble OPN induces apoptosis of primitive hematopoietic cells. Sca1^+lin^− cells were isolated from the bone marrow of C57B1/6 mice and cultured in IMDM containing 10% fetal calf serum (FCS), stem cell factor (SCF), Flt-3, thrombopoietin (TPO) and IL-3 with or without OPN [1 μg/ml]. After 7 days the cells were counted and analyzed in functional hematopoietic assays.
(§2) Exogenous OPN was used to assess its potential role in regulating primitive cells directly rather than through the altered expression of other regulators within the niche. Initial experiments cultured Sca1^+lin^− bone marrow cells of C57B1/6 mice in medium containing stem cell factor (SCF), Flt-3, thrombopoietin (TPO), and IL-3 with and without OPN for 7 days. The cells were subsequently counted and analyzed in functional in vitro progenitor and stem cell assays. Addition of soluble OPN led to a lower total cell number with an unperturbed absolute number of CFCs representing hematopoietic progenitor cell activity (n=5) (FIG. 5A).
(§3) Mouse bone marrow was obtained from 8-12 week old 129/C57BL/6 OPN^+/+ and 129/C57BL/6 OPN^−/− mice, sacrificed with CO2. Bone marrow cell and spleen cell suspensions were flushed from femurs and tibias or take from spleen, filtered through 100 μm-mesh nylon cloth (Sefar America Inc., Kansas City, Mo.), and stored on ice until use. […]

[3] = system: Sca1+lin− bone marrow cells; assay: Culture of Sca1+lin− bone marrow cells with or without soluble OPN for 7 days, cells counted; assay type: cell-based, mouse; conditions: Sca1+lin− cells of C57B1/6 mice, 7 days in SCF, Flt-3, TPO, IL-3, OPN 1 μg/ml, versus without OPN
Method: as §1, §2, §3

[4] = system: Sca1+lin− bone marrow cells; assay: Limiting dilution LTC-IC assay after 7 day culture with OPN; assay type: cell-based, mouse; conditions: after 7 days culture with OPN 1 μg/ml; without OPN 35.9±5.14; P=0.002, n=5
Method: as §1
as §2, with “Addition of soluble OPN led to a lower total cell number with an unperturbed absolute number of CFCs representing hematopoietic progenitor cell activity (n=5) (FIG. 5A).” left out
To quantify the stem cells in the bone marrow and spleen cell suspension, the CAFC assay^36 was adapted with minor modifications as described in our previous publication^37. To measure long term culture-initiating cells (LTC-IC) the semisolid, cytokine containing methylcellulose medium for CFC was overlaid into the wells at week 5 and the colonies were counted at day ten. […]

[5] = system: lin− primitive hematopoietic cells; assay: Apoptosis by AnnexinV / 7-AAD flow cytometry of cells cultured with OPN; assay type: cell-based, mouse; conditions: cultured with OPN 1 μg/ml versus without OPN
Method: as §1
The fraction of apoptotic cells was next analyzed by staining with lineage markers, 7-AAD and AnnexinV. […] OPN exerted a pro-apoptotic effect on primitive cells potentially constraining the size of the stem cell pool.
Flow cytometry was used to quantify the hematopoietic cells at different stages in the peripheral blood and the bone marrow of the transplanted animals. […] To quantify the enriched stem cell phenotype (Sca1^+lin^−) in primary animals and in transplanted animals bone marrow cells were stained with biotinylated lineage antibodies (CD3, Ter119 (Pharmingen, San Diego, Calif.), CD4, CD8, B220, IgM, Gr-1 and Mac1 (Caltag, Burlingame, Calif.)), c-kit-APC (Pharmingen, San Diego, Calif.) and Sca1-PE (Caltag, Burlingame, Calif.). The cells were analyzed after labeling with the secondary antibody Streptavidin-PerCP (Becton Dickinson, Franklin Lakes, N.J.). […]

[6] = system: Sca1+c-kit+lin− cells; assay: In vivo PTH treatment, Sca1+c-kit+lin− cells in bone marrow by flow cytometry; set-up: species or system mouse; conditions: for magnitude of Sca1+c-kit+lin− increase induced by PTH, absolute number / magnitude of Sca1+c-kit+lin− increase induced by PTH, proportion: four weeks of PTH
Method: FIG. 6 is a graph showing that OPN deficiency permits increased primitive hematopoietic cell compartment expansion after niche activation by parathyroid hormone (PTH): OPN^+/+ and OPN^−/− mice were treated with PTH by daily injection for 4 weeks. The bone marrow was analyzed by flow cytometry.
Parathyroid hormone is capable of activating niche osteoblasts and expanding the number of stem cells in vitro and in vivo in a Notch mediated manner. […] Stimulation with PTH increases OPN production leading to the hypothesis that the degree of stem cell expansion possible by PTH niche activation may be restricted by OPN. Using the OPN null or wild type mouse, the number of primitive cells was assessed following four weeks of PTH stimulation. A difference in the number of Sca1^+c-kit^+lin^− was noted between the OPN null and wild type mouse prior to PTH (FIG. 6). With PTH treatment, there was an increase in the Sca1^+c-kit^+lin^− cells in each genotypic background.
6-8 week old wild-type or null male mice were injected with rat PTH (1-34) (Bachem, Torrance, Calif.) (80 μg/Kg of body weight) or vehicle alone intraperitoneally 5×/week for 4 weeks (n=4-6/group). Animals were sacrificed and bone marrow cell isolated and analyzed as above.
Flow cytometry was used to quantify the hematopoietic cells at different stages in the peripheral blood and the bone marrow of the transplanted animals. Bone marrow nucleated cells were labeled with the leukocyte antibodies Ly5.1-PE and Ly5.2-biotin (Pharmingen, San Diego, Calif.), lineage antibodies (CD3-PerCP, CD4-PE, B220-PE, Ter119-PE, (Pharmingen, San Diego, Calif.), CD8-Tri, Gr-1-Tri, Mac1-PE (Caltag)), and stem cell markers (Sca1-Tri and PE, c-kit-Tri (Caltag, Burlingame, Calif.)). To quantify the enriched stem cell phenotype (Sca1^+lin^−) in primary animals and in transplanted animals bone marrow cells were stained with biotinylated lineage antibodies (CD3, Ter119 (Pharmingen, San Diego, Calif.), CD4, CD8, B220, IgM, Gr-1 and Mac1 (Caltag, Burlingame, Calif.)), c-kit-APC (Pharmingen, San Diego, Calif.) and Sca1-PE (Caltag, Burlingame, Calif.). The cells were analyzed after labeling with the secondary antibody Streptavidin-PerCP (Becton Dickinson, Franklin Lakes, N.J.). For cell cycle analyses bone marrow cells were incubated with stem cell markers and the DNA dye Hoechst33342. The proportion of apoptotic cells were measured by staining with AnnexinV (Caltag, Burlingame, Calif.) and the DNA-dye 7-AAD (Sigma, St. Louis, Mo.).

Substance	Jagged1 expression (RT-PCR, normalized to GAPDH) [1]	absolute number of CFCs [2]	total cell number [3]	absolute number of LTC-ICs [4] [LTC-ICs/well]	percentage of AnnexinV+7-AAD− cells in the lin− cell population [5]	Sca1+c-kit+lin− cells after PTH treatment ([6]; OPN null and wild type mice, 80 μg/Kg i.p. 5×/week for 4 weeks)	magnitude of Sca1+c-kit+lin− increase induced by PTH, absolute number ([6]; OPN null mice)	magnitude of Sca1+c-kit+lin− increase induced by PTH, proportion ([6]; OPN null mice) [%]	magnitude of Sca1+c-kit+lin− increase induced by PTH, absolute number ([6]; wild type mice)	magnitude of Sca1+c-kit+lin− increase induced by PTH, proportion ([6]; wild type mice) [%]
OPN: Osteopontin, a secreted, highly acidic glycoprotein; OPN protein was obtained from R&D Systems	statistically significantly reduced	unperturbed	lower	16.41±4.5	higher percentage					
PTH: rat PTH (1-34) (Bachem), parathyroid hormone used to activate niche osteoblasts (AVSEIQLMHNLGKHLASVERMQWLRKKLQDVHNF; Parathyroid hormone; UniProt P04089 32-65, looked up, fragment)						increase	5.94×10^4 stem cells per femur pair	10.0	3.82×10^4 stem cells per femur pair	7.5
